{
  "source": "paper PMC8762745",
  "about": "(ACS Medicinal Chemistry Letters, 2021)",
  "biological_target": "T1, human TAAR1 receptor (Homo sapiens, UniProt Q96RJ0)",
  "T1 sequence (Q96RJ0 1-339)": "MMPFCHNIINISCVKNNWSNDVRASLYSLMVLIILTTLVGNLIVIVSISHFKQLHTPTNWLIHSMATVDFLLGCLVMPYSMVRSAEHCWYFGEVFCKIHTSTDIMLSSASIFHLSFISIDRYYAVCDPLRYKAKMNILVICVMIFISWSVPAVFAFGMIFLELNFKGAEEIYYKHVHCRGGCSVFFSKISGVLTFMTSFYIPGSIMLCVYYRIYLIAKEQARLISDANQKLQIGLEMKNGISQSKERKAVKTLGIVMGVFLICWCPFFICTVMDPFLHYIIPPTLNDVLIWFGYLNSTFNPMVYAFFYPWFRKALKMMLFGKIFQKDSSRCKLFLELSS",
  "assay": "Human TAAR1 agonist assay",
  "settings": "for fold less active for TAAR1 than β-PEA (2): EC50 ratio versus β-PEA (2); for fold less potent for TAAR1 than racemic ulotaront 20: EC50 ratio versus racemic ulotaront 20",
  "data": [
    {"smiles": "NC[C@H](O)c1ccc(O)cc1", "note": "[6a, (−)-octopamine, reference compound]", "values": [
      {"measurement": "fold less active for TAAR1 than p-tyramine (4)", "value": 21, "unit": "fold"}
    ]},
    {"smiles": "NC[C@@H](O)c1ccc(O)cc1", "note": "[6b, (+)-octopamine, reference compound]", "values": [
      {"measurement": "fold less active for TAAR1 than p-tyramine (4)", "value": 54, "unit": "fold"}
    ]},
    {"smiles": "CNC[C@H](O)c1ccc(O)cc1", "note": "[7a, (−)-synephrine, reference compound]", "values": [
      {"measurement": "fold reduced TAAR1 activity compared to 6a", "setting": "EC50 ratio versus (−)-octopamine 6a", "value": "approximately 3 fold"}
    ]},
    {"smiles": "CNCCc1ccccc1", "note": "[compound 3, N-methylphenethylamine, reference compound]", "values": [
      {"measurement": "fold less active for TAAR1 than β-PEA (2)", "value": "approximately 10 fold"}
    ]},
    {"smiles": "NCCc1ccc(O)cc1", "note": "[compound 4, p-tyramine, reference compound]", "values": [
      {"measurement": "fold less active for TAAR1 than β-PEA (2)", "value": "about 5 fold"}
    ]},
    {"smiles": "NCCc1cccc(O)c1", "note": "[compound 5, m-tyramine, reference compound]", "values": [
      {"measurement": "fold less active for TAAR1 than β-PEA (2)", "value": "~23", "unit": "fold"}
    ]},
    {"smiles": "NCCc1c[nH]c2ccccc12", "note": "[compound 10, tryptamine, reference compound]", "values": [
      {"measurement": "fold less active for TAAR1 than β-PEA (2)", "value": "about 150 fold"}
    ]},
    {"smiles": "CNC[C@]1(C)OCCc2ccsc21", "note": "[compound 21]", "values": [
      {"measurement": "fold less potent for TAAR1 than ulotaront", "value": "> 1000", "unit": "fold"}
    ]},
    {"smiles": "NC[C@@H]1OCCc2ccsc21", "note": "[compound 22]", "values": [
      {"measurement": "fold more potent for TAAR1 than ulotaront", "value": "about 11 fold"}
    ]},
    {"smiles": "c1cc2c(s1)[C@H](CN1CCCC1)OCC2", "note": "[compound 24]", "values": [
      {"measurement": "fold less potent for TAAR1 than ulotaront", "value": 189, "unit": "fold"}
    ]},
    {"smiles": "NCC[C@@H]1OCCc2ccsc21", "note": "[compound 25]", "values": [
      {"measurement": "fold reduced TAAR1 activity compared to N-demethylated analogue 22", "setting": "EC50 ratio versus 22", "value": 67, "unit": "fold"}
    ]},
    {"smiles": "CNCC1OCCCc2ccsc21", "note": "(stereo not shown) [compound 26]", "values": [
      {"measurement": "fold less potent for TAAR1 than racemic ulotaront 20", "value": "approximately 6 fold"}
    ]},
    {"smiles": "NCC1OCCCc2ccsc21", "note": "(stereo not shown) [compound 27]", "values": [
      {"measurement": "fold more potent for TAAR1 compared to 26", "setting": "EC50 ratio versus 26", "value": "about 5 fold"}
    ]},
    {"smiles": "CNCC1OCCc2cscc21", "note": "(stereo not shown) [compound 28]", "values": [
      {"measurement": "fold less potent for TAAR1 than racemic ulotaront 20", "value": "~6", "unit": "fold"}
    ]},
    {"smiles": "CNC[C@@H]1OCCc2sccc21", "note": "[compound 29]", "values": [
      {"measurement": "fold less potent for TAAR1 than ulotaront", "value": 3, "unit": "fold"}
    ]},
    {"smiles": "NCCc1cccs1", "note": "[compound 30, thiophen-2-ylethanamine]", "values": [
      {"measurement": "fold more potent for TAAR1 than the other ring opened thiophene (31)", "setting": "EC50 ratio versus 31", "value": "approximately 3 fold"}
    ]}
  ]
}
